Measured values reported in PubChem BioAssay AID1919017 (Molecular Pharmacology Branch, DTP, NCI, 2023).
“And” between values parts separate entries of the source, which are not always exact repeats. Identical values can stand only once.

Tested on: SW1271 complex spheroids with HUVEC/MSC, growth, % test/control
Assay: Anticancer human tumor SW1271 cell line growth inhibition [AhR];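 further: spheroids exposed to agents for 7 days before readout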
Details: for viability, T/C: stronger effect = lower value
From the text: Multicellular complex tumor spheroid response to aryl hydrocarbon receptor antagonists in combination with a variety of drugs and investigational agents in selected tumor cell lines
The current study was undertaken to assess response to aryl hydrocarbon receptor antagonists in combination with standard-of-care drugs and investigational agents in solid tumor complex spheroid models. Complex spheroids include a stromal component modeled by human endothelial cells (HUVEC) and fibroblasts modeled by human mesenchymal stem cells (MSCs). The concentration ranges selected for each drug and investigational agent were based upon clinically achievable concentrations if the clinical Cmax of the agent was known.
Compounds. The drugs and investigational agents: BAY 2416964 (NSC825713), GNF351 (NSC835774), CH-223191 (NSC835775), CPI-455 (NSC825282), aza-TdCyd (NSC777586), decitabine (NSC127716), belinostat (NSC758774), entinostat (NSC756642), pevonedistat (NSC761192), tazemetostat (NSC777109), talazoparib (NSC765396), olaparib (NSC753686), selinexor (NSC780203), nedisertib (M3814, NSC802822), bortezomib (NSC756655), venetoclax (NSC766270), doxorubicin (NSC123127), elimusertib (BAY189344, NSC800525), ceralasertib (AZD6738, NSC777638), TAK-243 (NSC785004), alisertib (NSC759677), etoposide (NSC141540), topotecan (NSC609699), eribulin (NSC707389), gemcitabine (NSC613327), carboplatin (NSC241240), cisplatin (NSC119875), and SN-38 (NSC673596) were obtained from the National Cancer Institute (NCI) Developmental Therapeutics Program Chemical Repository (32). The FDA-approved anticancer drug set is available from the Developmental Therapeutics Program at https://dtp.cancer.gov/organization/dscb/obtaining/available plates.htm. […] The stock solutions were prepared in dimethyl sulfoxide (DMSO, Sigma-Aldrich, St. Louis, MO, cat. D2650), except for the platinum compounds which were prepared in saline (Quality Biological, Gaithersburg, MD, cat. 114-055-101), at 800-fold the tested concentration and stored at -70 degrees C prior to their use. All drugs and investigational agents were tested over a range starting from a high concentration at or near the clinical Cmax and decreasing in half-log increments. If the clinical Cmax for an agent had not been determined, the highest concentration tested was 10 microM (Table 1).
Cell Culture. All cells were maintained in an incubator at 37 degrees C and 5% CO2 with 95% humidity. The PDC lines were cultured according to standard operating procedures established by the NCI PDMR (https://pdmr.cancer.gov). Briefly, all PDCs were thawed and cultured in Matrigel-coated flasks prepared with a working solution of 1X Ham's F-12 nutrient mix, without supplementation (Invitrogen, Waltham, MA, cat. 11765054), 100 U/mL penicillin-streptomycin (Invitrogen, cat. 15140122), and 2.5% Matrigel (Corning Inc., Corning, NY, cat. 354248) for the first three passages. All PDCs were cultured in complete DMEM/F-12 media containing advanced DMEM/F-12 (Invitrogen, cat. 12634028), 4.9% defined fetal bovine serum, heat inactivated (HyClone Laboratories Inc., Logan, UT, cat. SH30070.03HI), 389 ng/mL hydrocortisone (Sigma-Aldrich, cat. H4001), 9.7 ng/mL human EGF recombinant protein (Invitrogen, cat. PHG0313), 23.4 microg/mL adenine (Sigma-Aldrich, cat. A2786), 97.3 U/mL penicillin-streptomycin (Invitrogen, cat. 15140122), 1.9 mM L-glutamine (Invitrogen, cat. 25030081), and 9.7 microM Y-27632 dihydrochloride (Tocris Bioscience, Bristol, United Kingdom, cat. 1254). The PDCs were cultured in complete DMEM/F12 media without 10 microM Y-27632 dihydrochloride for at least two passages prior to the screen. The established cell lines NCI-H1341 and […] were cultured in DMEM/F-12, HEPES (Invitrogen, cat. 11330032), 5% defined fetal bovine serum (HyClone Laboratories Inc., cat. SH30070.03), ITS premix universal culture supplement [insulin (5 microg/mL), transferrin (5 microg/mL), and selenious acid (5 ng/mL)] […]

Row | Structure (SMILES) | IC50 (curve of compound) | viability, T/C (compound 0.0316 µM) | viability, T/C (compound 0.1 µM) | viability, T/C (compound 0.316 µM) | viability, T/C (compound 1 µM) | viability, T/C (compound 3.16 µM) | viability, T/C (compound 10 µM) | other results
1 | CC(C)CC(NC(=O)C(Cc1ccccc1)NC(=O)c1cnccn1)B(O)O (stereo unspecified) | 5.23 nM and 5.07 nM and 4.06 nM |  |  |  |  |  |  | viability, T/C (compound 0.000949 µM): 97.1% and 109% and 95.8%; viability, T/C (compound 0.003 µM): 89.3% and 86% and 67.3%; viability, T/C (compound 0.00949 µM): 7.81% and 7.15% and 1.46%; viability, T/C (compound 0.03 µM): 0.75% and 0.78% and 0.59%; viability, T/C (compound 0.0949 µM): 0.47% and 0.58% and 0.43%; viability, T/C (compound 0.3 µM): 0.64% and 0.89% and 0.44%
2 | CC(C)c1c(-c2ccccc2)nc2c(C#N)c[nH]n2c1=O | > 10000 nM | 110% and 109% and 85.9% | 81.4% and 104% and 86.4% | 121% and 91.8% and 104% | 101% and 92.5% and 93.3% | 110% and 91.8% and 94% | 107% and 91.7% and 85.8% | 
3 | CC(CO)NC(=O)c1cc(-c2ccc(Cl)cc2)nn(-c2cnn(C)c2)c1=O (stereo unspecified) |  |  | 94.2% [middle of 20 runs] |  |  |  |  | IC50 (compound alone, run of 08/08/2022): > 10000 nM
4 | CC1(C)CCC(CN2CCN(c3ccc(C(=O)NS(=O)(=O)c4ccc(NCC5CCOCC5)c([N+](=O)[O-])c4)c(Oc4cnc5[nH]ccc5c4)c3)CC2)=C(c2ccc(Cl)cc2)C1 | > 10000 nM | 93.6% and 94.9% and 90.9% | 107% and 101% and 97.1% | 104% and 75% and 108% | 92.9% and 102% and 94.2% | 101% and 110% and 105% | 88% and 72.9% and 74.4% | 
5 | CC1COCCN1c1cc(-c2ccnn2C)c2ccnc(-c3ccn[nH]3)c2n1 (stereo unspecified) | 294 nM and > 1000 nM and 712 nM | 76.6% and 71.1% and 85.7% | 58.4% and 65.3% and 70.1% | 51.8% and 61.9% and 60.3% | 43.8% and 46.2% and 45.5% |  |  | viability, T/C (compound 0.00316 µM): 95.8% and 99.2% and 91%; viability, T/C (compound 0.01 µM): 90.6% and 102% and 103%
6 | CC1COCCN1c1cc(C2(S(C)(=N)=O)CC2)nc(-c2ccnc3[nH]ccc23)n1 (stereo unspecified) | > 10000 nM | 106% and 99.7% and 91.9% | 85.4% and 106% and 103% | 87.8% (2×) and 79.2% | 77.5% and 84% and 73.8% | 80.1% and 69.6% and 68.8% | 59.5% and 70.1% and 51.9% | 
7 | CCN(c1cc(-c2ccc(CN3CCOCC3)cc2)cc(C(=O)NCc2c(C)cc(C)[nH]c2=O)c1C)C1CCOCC1 | > 3000 nM |  |  |  |  |  |  | viability, T/C (compound 0.00949 µM): 104% and 90.3% and 94.7%; viability, T/C (compound 0.03 µM): 96.7% and 99.1% and 104%; viability, T/C (compound 0.0949 µM): 86.3% and 110% and 120%; viability, T/C (compound 0.3 µM): 93.2% and 124% and 111%; viability, T/C (compound 0.949 µM): 90.6% and 106% and 125%; viability, T/C (compound 3 µM): 102% and 115% and 107%
8 | CC[C@@]1(O)C(=O)OCc2c1cc1n(c2=O)Cc2cc3c(CN(C)C)c(O)ccc3nc2-1 | > 100 nM and 75.4 nM | 89% and 65% and 78.6% | 74.6% and 45.2% and 70% |  |  |  |  | viability, T/C (compound 0.000316 µM): 105% and 80.9% and 102%; viability, T/C (compound 0.001 µM): 108% and 64.1% and 91.1%; viability, T/C (compound 0.00316 µM): 80.9% and 87% and 83.4%; viability, T/C (compound 0.01 µM): 91.5% and 70% and 96.8%
9 | CCc1c2c(nc3ccc(O)cc13)-c1cc3c(c(=O)n1C2)COC(=O)[C@]3(O)CC | 177 nM and > 300 nM |  |  |  |  |  |  | viability, T/C (compound 0.000949 µM): 78.1% and 88.3% and 86.2%; viability, T/C (compound 0.003 µM): 79.8% and 97.7% and 79%; viability, T/C (compound 0.00949 µM): 64.6% and 71.7% and 61.4%; viability, T/C (compound 0.03 µM): 67% and 58.3% and 59.9%; viability, T/C (compound 0.0949 µM): 55.6% and 56% and 60.6%; viability, T/C (compound 0.3 µM): 44.9% and 53.3% and 49.2%
10 | COc1cc(C2c3cc4c(cc3C(OC3OC5COC(C)OC5C(O)C3O)C3COC(=O)C23)OCO4)cc(OC)c1O (stereo unspecified) |  | 81.3% and 81.6% and 96.4% | 82.5% and 92.6% and 64.2% | 63.9% and 54.3% and 41.1% | 61.9% and 51% and 46.1% | 60.1% and 72.8% and 44.8% | 50.8% and 45.9% and 39.2% | 
11 | COc1cc(Nc2ncc3c(n2)-c2ccc(Cl)cc2C(c2c(F)cccc2OC)=NC3)ccc1C(=O)O | 7650 nM and > 10000 nM | 80.7% and 65.3% and 70.4% | 91.2% and 67.1% and 74.3% | 92.5% and 67% and 66.7% | 83.3% and 64.7% and 68.1% | 72.4% and 61.5% and 57.6% | 43.3% and 49% and 51.4% | 
